In patent publication US11566007B2, “Ras inhibitors” (Revolution Medicines, Inc., priority 2019, dated 2023):
Values joined by “and” are separate entries in the source; they are usually repeats but may differ in a detail not shown here. Equal values may be shown once.

Experiments:
Assay type in all cases: biochemical
K-Ras G12C = K-Ras G12C (Homo sapiens (Human), UniProt P01116+P62937, G12C); assay: Ras-Raf (BRAF RBD) disruption / FRET / MOA assay, KRAS G12C; settings: KRAS G12C; Ras-Raf disruption/FRET/MOA assay; read-out: IC50* KRAS G12C FRET data
Outline: (§1)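 Ras:RAF disruption was scored as a fall in TR-FRET ratio relative to DMSO. Compound ranged in 3-fold steps over 10 points from 30 μM final; incubation ran 3 h at 25° C, detection antibodies a further 1.5 h. Reported as IC50.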

K-Ras G13C = K-Ras G13C (Homo sapiens (Human), UniProt P01116+P62937, G13C); assay: Ras-Raf (BRAF RBD) disruption / FRET / MOA assay, KRAS G13C; settings: KRAS G13C; Ras-Raf disruption/FRET/MOA assay; read-out: IC50* KRAS G13C FRET data
Outline: as §1

KRAS G12S = KRAS G12S (Homo sapiens (Human), UniProt P01116+P62937, G12S); assay: Ras-Raf (BRAF RBD) disruption / FRET / MOA assay, KRAS G12S; settings: Ras-Raf disruption/FRET/MOA assay; class symbols; read-out: KRAS G12S FRET data IC50
Outline: as §1

KRAS G12V = KRAS G12V (Homo sapiens (Human), UniProt P01116+P62937, G12V); assay: Ras-Raf (BRAF RBD) disruption / FRET / MOA assay, KRAS G12V; settings: read-out: IC50* KRAS G12V FRET data
Outline: as §1

KRAS WT = KRAS WT (Homo sapiens (Human), UniProt P01116+P62937); assay: Ras-Raf (BRAF RBD) disruption / FRET / MOA assay, KRAS WT; settings: read-out: IC50* KRAS WT FRET data
Outline: as §1

KRAS G13D = KRAS G13D (Homo sapiens (Human), UniProt P01116+P62937, G13D); assay: Ras-Raf (BRAF RBD) disruption / FRET / MOA assay, KRAS G13D; settings: read-out: IC50* KRAS G13D FRET data
Outline: as §1

NRAS G12C = NRAS G12C (Homo sapiens (Human), UniProt P01111+P62937, G12C); assay: Ras-Raf (BRAF RBD) disruption / FRET / MOA assay, NRAS G12C; settings: read-out: IC50* NRAS G12C FRET data
Outline: as §1

NRAS Q61R = NRAS Q61R (Homo sapiens (Human), UniProt P01111+P62937, Q61R); assay: Ras-Raf (BRAF RBD) disruption / FRET / MOA assay, NRAS Q61R; settings: NRAS Q61R; Ras-Raf disruption/FRET/MOA assay; read-out: IC50* NRAS Q61R FRET data
Outline: (§2)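 TR-FRET disruption of nucleotide-loaded Ras binding to BRAF RBD via compound-driven ternary complex with cyclophilin A. Compound as 10-point 3-fold series from 30 μM final, 3 h at 25° C, then anti-His Eu-W1024 (10 nM) and anti-GST allophycocyanin (50 nM) for 1.5 h. IC50 from decreased FRET ratio versus DMSO.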

NRAS Q61K = NRAS Q61K (Homo sapiens (Human), UniProt P01111+P62937, Q61K); assay: Ras-Raf (BRAF RBD) disruption / FRET / MOA assay, NRAS Q61K; settings: NRAS Q61K; Ras-Raf disruption/FRET/MOA assay; read-out: IC50* NRAS Q61K FRET data
Outline: as §2

NRAS WT = NRAS WT (Homo sapiens (Human), UniProt P01111+P62937); assay: Ras-Raf (BRAF RBD) disruption / FRET / MOA assay, NRAS WT; settings: read-out: IC50* NRAS WT FRET data
Outline: as §2

Chain of NRAS G12C (P01111 whole entry G12C): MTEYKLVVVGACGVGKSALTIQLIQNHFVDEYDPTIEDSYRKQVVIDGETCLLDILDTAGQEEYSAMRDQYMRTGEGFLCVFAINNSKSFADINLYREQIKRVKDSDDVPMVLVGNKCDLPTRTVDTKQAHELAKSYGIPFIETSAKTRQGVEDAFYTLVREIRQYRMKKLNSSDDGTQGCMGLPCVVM
Chain of NRAS G12C (P62937 whole entry): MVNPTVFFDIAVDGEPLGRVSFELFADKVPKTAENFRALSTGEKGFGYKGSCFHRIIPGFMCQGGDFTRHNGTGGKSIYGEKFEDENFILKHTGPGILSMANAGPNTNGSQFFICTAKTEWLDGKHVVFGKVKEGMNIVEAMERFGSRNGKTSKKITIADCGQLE
Chain of K-Ras G13C (P01116-2 other isoform, or with tags, fused parts or gaps G13C): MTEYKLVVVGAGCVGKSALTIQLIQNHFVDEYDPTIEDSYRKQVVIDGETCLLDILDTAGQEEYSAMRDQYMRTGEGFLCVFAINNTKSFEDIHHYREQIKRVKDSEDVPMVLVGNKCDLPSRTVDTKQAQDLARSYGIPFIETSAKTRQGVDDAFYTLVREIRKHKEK
Chain of K-Ras G13C (P62937 whole entry): as the sequence (P62937 whole entry) above
Chain of NRAS Q61R (P01111 whole entry Q61R): as the sequence (P01111 whole entry G12C) above, with C12G, Q61R counted along it
Chain of NRAS Q61R (P62937 whole entry): as the sequence (P62937 whole entry) above
Chain of KRAS G12S (P01116-2 other isoform, or with tags, fused parts or gaps G12S): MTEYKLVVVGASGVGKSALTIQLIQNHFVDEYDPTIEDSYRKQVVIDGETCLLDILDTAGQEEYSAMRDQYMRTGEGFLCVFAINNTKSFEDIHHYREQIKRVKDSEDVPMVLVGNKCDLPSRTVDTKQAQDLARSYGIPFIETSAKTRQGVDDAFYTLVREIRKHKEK
Chain of KRAS G12S (P62937 whole entry): as the sequence (P62937 whole entry) above
Chain of KRAS WT (P01116-2 other isoform, or with tags, fused parts or gaps): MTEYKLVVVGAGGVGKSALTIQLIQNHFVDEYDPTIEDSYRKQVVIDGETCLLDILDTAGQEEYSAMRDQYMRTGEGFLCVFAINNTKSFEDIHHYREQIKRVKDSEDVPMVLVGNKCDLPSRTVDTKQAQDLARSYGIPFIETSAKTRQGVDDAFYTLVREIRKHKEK
Chain of KRAS WT (P62937 whole entry): as the sequence (P62937 whole entry) above
Chain of NRAS WT (P01111 whole entry): as the sequence (P01111 whole entry G12C) above, with C12G counted along it
Chain of NRAS WT (P62937 whole entry): as the sequence (P62937 whole entry) above
Chain of KRAS G12V (P01116-2 other isoform, or with tags, fused parts or gaps G12V): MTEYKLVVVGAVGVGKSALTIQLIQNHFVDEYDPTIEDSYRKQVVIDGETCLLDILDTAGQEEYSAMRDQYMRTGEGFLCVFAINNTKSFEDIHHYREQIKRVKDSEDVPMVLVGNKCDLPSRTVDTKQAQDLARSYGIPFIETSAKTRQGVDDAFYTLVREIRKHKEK
Chain of KRAS G12V (P62937 whole entry): as the sequence (P62937 whole entry) above
Chain of K-Ras G12C (P01116-2 other isoform, or with tags, fused parts or gaps G12C): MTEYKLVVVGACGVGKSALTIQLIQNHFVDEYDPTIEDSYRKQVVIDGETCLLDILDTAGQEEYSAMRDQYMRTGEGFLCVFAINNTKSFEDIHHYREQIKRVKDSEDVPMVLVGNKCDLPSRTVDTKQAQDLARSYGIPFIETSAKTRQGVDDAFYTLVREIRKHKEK
Chain of K-Ras G12C (P62937 whole entry): as the sequence (P62937 whole entry) above
Chain of NRAS Q61K (P01111 whole entry Q61K): as the sequence (P01111 whole entry G12C) above, with C12G, Q61K counted along it
Chain of NRAS Q61K (P62937 whole entry): as the sequence (P62937 whole entry) above
Chain of KRAS G13D (P01116-2 other isoform, or with tags, fused parts or gaps G13D): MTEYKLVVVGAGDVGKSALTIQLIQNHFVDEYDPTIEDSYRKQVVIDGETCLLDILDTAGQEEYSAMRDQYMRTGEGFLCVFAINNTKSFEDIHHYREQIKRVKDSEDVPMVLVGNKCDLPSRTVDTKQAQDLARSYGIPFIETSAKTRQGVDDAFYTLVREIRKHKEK
Chain of KRAS G13D (P62937 whole entry): as the sequence (P62937 whole entry) above

| Compound | IC50 (K-Ras G12C) | IC50 (K-Ras G13C) [nM] | IC50 (KRAS G12S) [nM] | IC50 (KRAS G12V) [nM] | IC50 (KRAS WT) [nM] | IC50 (KRAS G13D) [nM] | IC50 (NRAS G12C) | IC50 (NRAS Q61R) [nM] | IC50 (NRAS Q61K) [nM] | IC50 (NRAS WT) [nM] |
| --- | --- | --- | --- | --- | --- | --- | --- | --- | --- | --- |
| C=CC(=O)N1CC(OC[C@H](C(=O)N[C@H]2Cc3cc(F)cc(c3)-c3ccc4c(c3)c(c(-c3cccnc3[C@H](C)OC)n4CC(F)(F)F)CC(C)(C)COC(=O)[C@@H]3CCCN(N3)C2=O)C(C)C)C1 (atropisomer, axis not shown) [Example A725] | 100 to 1000 nM | 100 to 1000 | 1000 to 10000 | 1000 to 10000 | 1000 to 10000 | 1000 to 10000 | 100 to 1000 nM | 1000 to 10000 | 1000 to 10000 | 1000 to 10000 |
| C=CC(=O)N1CC[C@H](N(C)C(=O)N(C)[C@H](C(=O)N[C@H]2Cc3nc(cs3)-c3ccc4c(c3)c(c(-c3cccnc3[C@H](C)OC)n4CC)CC(C)(C)COC(=O)[C@@H]3CCCN(N3)C2=O)C(C)C)C1 (atropisomer, axis not shown) [Example A728] | 100 to 1000 nM | 100 to 1000 | 100 to 1000 | 100 to 1000 | 100 to 1000 | 1000 to 10000 | 100 to 1000 nM | 100 to 1000 | 100 to 1000 | 100 to 1000 |
| C=CC(=O)N1CCN(C(=O)N(C)[C@H](C(=O)N[C@H]2Cc3nc(cs3)-c3ccc4c(c3)c(c(-c3cccnc3[C@H](C)OC)n4CC)CC(C)(C)COC(=O)[C@@H]3CCCN(N3)C2=O)C(C)C)[C@H]2CC[C@H]21 (atropisomer, axis not shown) [Example A734] | 10 to 100 nM | 10 to 100 | 10 to 100 | 10 to 100 | 10 to 100 | 100 to 1000 | 10 to 100 nM | 10 to 100 | 10 to 100 | 10 to 100 |
| C=CC(=O)N1CC2(C1)OCCCN2C(=O)N(C)[C@H](C(=O)N[C@H]1Cc2nc(cs2)-c2ccc3c(c2)c(c(-c2cccnc2[C@H](C)OC)n3CC)CC(C)(C)COC(=O)[C@@H]2CCCN(N2)C1=O)C(C)C (atropisomer, axis not shown) [Example A735, 2-acryloyl-N-((2S)-1-(((6^3S,4S,Z)-1^1-ethyl-1^2-(2-((S)-1-methoxyethyl)pyridin-3-yl)-10,10-dimethyl-5,7-dioxo-6^1,6^2,6^3,6^4,6^5,6^6-hexahydro-1^1H-8-oxa-2(4,2)-thiazola-1(5,3)-indola-6(1,3)-pyridazinacycloundecaphane-4-yl)amino)-3-methyl-1-oxobutan-2-yl)-N-methyl-5-oxa-2,9-diazaspiro[3.5]nonane-9-carboxamide] | < 10 nM | 1000 to 10000 | > 10000 | > 10000 | 1000 to 10000 | > 10000 | < 10 nM | > 10000 | 1000 to 10000 | 1000 to 10000 |
| C=CC(=O)N(C)[C@@H]1C[C@H]1N(C)C(=O)N(C)[C@H](C(=O)N[C@H]1Cc2nc(cs2)-c2ccc3c(c2)c(c(-c2cccnc2[C@H](C)OC)n3CC)CC(C)(C)COC(=O)[C@@H]2CCCN(N2)C1=O)C(C)C (atropisomer, axis not shown) [Example A739] | 100 to 1000 nM | 100 to 1000 | 1000 to 10000 | 1000 to 10000 | 100 to 1000 | 1000 to 10000 | 100 to 1000 nM | 1000 to 10000 | 10 to 100 | 100 to 1000 |
| C=CC(=O)N1CC[C@H](C(=O)N(C)[C@H](C(=O)N[C@H]2Cc3cccc(c3)-c3ccc4c(c3)c(c(-c3cnccc3[C@H](C)OC)n4CC)CC(C)(C)COC(=O)[C@@H]3CCCN(N3)C2=O)C(C)C)C1 (single isomer, unassigned) [Example A115] | 10 to 100 nM and 100 to 1000 nM | 1000 to 10000 | 1000 to 10000 | 1000 to 10000 | 1000 to 10000 | > 10000 | 10 to 100 nM and 100 to 1000 nM | 1000 to 10000 | 1000 to 10000 | 1000 to 10000 |
| C=CC(=O)N1CC[C@H](C(=O)N(C)[C@H](C(=O)N[C@H]2Cc3cc(O)cc(c3)-c3ccc4c(c3)c(c(-c3cc(N5CC(OC)C5)ccn3)n4CC)CC(C)(C)COC(=O)[C@@H]3CCCN(N3)C2=O)C(C)C)C1 [Example A104] | 10 to 100 nM | 1000 to 10000 | 1000 to 10000 | 1000 to 10000 | 1000 to 10000 | 1000 to 10000 | 10 to 100 nM | 1000 to 10000 | 1000 to 10000 | 1000 to 10000 |
| C=CC(=O)N1CC[C@H](C(=O)N(C)[C@H](C(=O)N[C@H]2Cc3cc(O)cc(c3)-c3ccc4c(c3)c(c(-c3cc(C#N)cnc3COC)n4CC)CC(C)(C)COC(=O)[C@@H]3CCCN(N3)C2=O)C(C)C)C1 [Example A105] | 10 to 100 nM | 100 to 1000 | 100 to 1000 | 100 to 1000 | 100 to 1000 | 100 to 1000 | 10 to 100 nM | 100 to 1000 | 100 to 1000 | 100 to 1000 |
| C=CC(=O)N1CC[C@H](C(=O)N(C)[C@H](C(=O)N[C@H]2Cc3cc(O)cc(c3)-c3ccc4c(c3)c(c(-c3cn(C)cn3)n4CC)CC(C)(C)COC(=O)[C@@H]3CCCN(N3)C2=O)C(C)C)C1 [Example A113] | 100 to 1000 nM | > 10000 | 1000 to 10000 | 1000 to 10000 | > 10000 | > 10000 | 100 to 1000 nM | > 10000 | > 10000 | > 10000 |
| C=CS(=O)(=O)N1CC[C@H](C(=O)N(C)[C@H](C(=O)N[C@H]2Cc3cc(O)cc(c3)-c3ccc4c(c3)c(c(-c3cncnc3)n4CC)CC(C)(C)COC(=O)[C@@H]3CCCN(N3)C2=O)C(C)C)C1 [Example A172] | 10 to 100 nM | 10 to 100 | 1000 to 10000 | 1000 to 10000 | 1000 to 10000 | > 10000 | 10 to 100 nM | > 10000 | 1000 to 10000 | 1000 to 10000 |
| CCn1c(-c2cccnc2[C@H](C)OC)c2c3cc(ccc31)-c1cccc(c1)C[C@H](NC(=O)[C@H](C(C)C)N1CC[C@@]3(CCN(C(=O)C#C[C@@H]4COCCN4C4COC4)C3)C1=O)C(=O)N1CCC[C@H](N1)C(=O)OCC(C)(C)C2 [Example A566] | 10 to 100 nM | 100 to 1000 | 1000 to 10000 | 1000 to 10000 | 1000 to 10000 | 1000 to 10000 | 10 to 100 nM | 1000 to 10000 | 1000 to 10000 | 1000 to 10000 |
| C=CC(=O)N1CCC2(C1)CN(C(=O)N(C)[C@H](C(=O)N[C@H]1Cc3nc(cs3)-c3ccc4c(c3)c(c(-c3cccnc3[C@H](C)OC)n4CC(F)(F)F)CC(C)(C)COC(=O)[C@@H]3CCCN(N3)C1=O)C(C)C)C2 [Example A603] | 10 to 100 nM | 10 to 100 | 100 to 1000 | 100 to 1000 | 10 to 100 | 100 to 1000 | 10 to 100 nM | 10 to 100 | 10 to 100 | 10 to 100 |
